From ChEMBL document CHEMBL3885861, “Open TG-GATES”

Species: Rattus norvegicus
Experiment: Open TG-GATES - Regimen: Single
Format: toxicity, organism-based, Sprague-Dawley
Parameters: regimen Single, gender Male, age 6 weeks
Conditions: in vivo, po, 2000 mg/kg, route gavage, dose level High; for APTT / Bas / Eos / Fbg / Hb / Ht / Lym / MCH / MCHC / MCV / Mono / Neu / PT / Plat / RBC / Ret / WBC: tissue Blood; for KIDNEY_L / KIDNEY_R / KIDNEY_TOTAL: tissue Kidney; for LIVER: tissue Liver; for A/G / ALP / ALT / AST / BUN / CRE / Ca / Cl / DBIL / GLC / IP / K / LDH / Na / PL / RALB / TBIL / TC / TG / TP / gamma-GTP: tissue Plasma

In the case of CCOc1ccc(NC(=O)CC(C)O)cc1 (configuration not stated) [BUCETIN], the TERMINAL_BW (3 h) is reported as 211.9 g, the APTT (3 h) is reported as 16.2 s and the Bas (3 h) is reported as 0%. For the same molecule, the Eos (3 h) was 1%, the Fbg (3 h) was 308.4 mg/dL and the Hb (3 h) was 13.1 g/dL. The Ht (3 h) was 38.8%, the Lym (3 h) was 74.8% and the MCH (3 h) was 20.8 pg. It also gave an MCHC (3 h) of 33.8%, an MCV (3 h) of 61.7 fL and a Mono (3 h) of 2.8%. It also gave a Neu (3 h) of 21%, a PT (3 h) of 13.7 s and a Plat (3 h) of 123.8 x10_4/uL. The RBC (3 h) was 628.8 x10_4/ul, the Ret (3 h) was 8.2% and the WBC (3 h) was 70.6 x10_2/uL. For the same molecule, the KIDNEY_L (3 h) was 0.9 g, the KIDNEY_R (3 h) was 0.9 g and the KIDNEY_TOTAL (3 h) was 1.9 g. The LIVER (3 h) was 9.3 g, the A/G (3 h) was 0.9 and the ALP (3 h) was 1367.8 IU/L. It also gave an ALT (3 h) of 30.4 IU/L, an AST (3 h) of 66 IU/L and a BUN (3 h) of 9.2 mg/dL. For the same molecule, the CRE (3 h) was 0.1 mg/dL, the Ca (3 h) was 10.8 mg/dL and the Cl (3 h) was 103.8 meq/L. The DBIL (3 h) was 0.032 mg/dL, the GLC (3 h) was 198.4 mg/dL and the IP (3 h) was 9.5 mg/dL. For the same molecule, the K (3 h) was 4.1 meq/L, the LDH (3 h) was 67 IU/L and the Na (3 h) was 141 meq/L. The PL (3 h) was 148 mg/dL, the RALB (3 h) was 2.5 g/dL and the TBIL (3 h) was 0.054 mg/dL. The TC (3 h) was 83.4 mg/dL, the TG (3 h) was 52.2 mg/dL and the TP (3 h) was 5.4 g/dL. For the same molecule, the gamma-GTP (3 h) was 1.2 IU/L, the TERMINAL_BW (6 h) was 209.3 g and the APTT (6 h) was 21.1 s. The Bas (6 h) was 0.2%, the Eos (6 h) was 0.4% and the Fbg (6 h) was 315.2 mg/dL. The Hb (6 h) was 13.7 g/dL, the Ht (6 h) was 40.6% and the Lym (6 h) was 79%. For the same molecule, the MCH (6 h) was 20.7 pg, the MCHC (6 h) was 33.7% and the MCV (6 h) was 61.2 fL. The Mono (6 h) was 2.2%, the Neu (6 h) was 17.8% and the PT (6 h) was 13.5 s. For the same molecule, the Plat (6 h) was 124.4 x10_4/uL, the RBC (6 h) was 662.8 x10_4/ul and the Ret (6 h) was 8.2%. It also gave a WBC (6 h) of 64.5 x10_2/uL, a KIDNEY_L (6 h) of 0.9 g and a KIDNEY_R (6 h) of 0.9 g. For the same molecule, the KIDNEY_TOTAL (6 h) was 1.9 g, the LIVER (6 h) was 8.5 g and the A/G (6 h) was 0.9. The ALP (6 h) was 1336.4 IU/L, the ALT (6 h) was 36.2 IU/L and the AST (6 h) was 68.6 IU/L. The BUN (6 h) was 8.4 mg/dL, the CRE (6 h) was 0.1 mg/dL and the Ca (6 h) was 10.6 mg/dL. It also gave a Cl (6 h) of 102.2 meq/L, a DBIL (6 h) of 0.032 mg/dL and a GLC (6 h) of 201.8 mg/dL. The IP (6 h) was 10.1 mg/dL, the K (6 h) was 3.7 meq/L and the LDH (6 h) was 79.4 IU/L. It also gave a Na (6 h) of 141.2 meq/L, a PL (6 h) of 147.4 mg/dL and an RALB (6 h) of 2.6 g/dL. It also gave a TBIL (6 h) of 0.048 mg/dL, a TC (6 h) of 85.2 mg/dL and a TG (6 h) of 27.6 mg/dL. For the same molecule, the TP (6 h) was 5.5 g/dL, the gamma-GTP (6 h) was 1.4 IU/L and the TERMINAL_BW (9 h) was 208.4 g. For the same molecule, the APTT (9 h) was 18.5 s, the Bas (9 h) was 0% and the Eos (9 h) was 0.8%. For the same molecule, the Fbg (9 h) was 314.8 mg/dL, the Hb (9 h) was 13.3 g/dL and the Ht (9 h) was 39%. It also gave a Lym (9 h) of 80.6%, an MCH (9 h) of 20.8 pg and an MCHC (9 h) of 34%. The MCV (9 h) was 61.1 fL, the Mono (9 h) was 2.2% and the Neu (9 h) was 16.2%. For the same molecule, the PT (9 h) was 14.1 s, the Plat (9 h) was 119.7 x10_4/uL and the RBC (9 h) was 639.8 x10_4/ul. It also gave a Ret (9 h) of 8.3%, a WBC (9 h) of 54.6 x10_2/uL and a KIDNEY_L (9 h) of 0.9 g. For the same molecule, the KIDNEY_R (9 h) was 0.9 g, the KIDNEY_TOTAL (9 h) was 1.9 g and the LIVER (9 h) was 8.2 g. The A/G (9 h) was 0.9, the ALP (9 h) was 1215 IU/L and the ALT (9 h) was 28.8 IU/L. For the same molecule, the AST (9 h) was 62.8 IU/L, the BUN (9 h) was 8.2 mg/dL and the CRE (9 h) was 0.1 mg/dL. The Ca (9 h) was 10.5 mg/dL, the Cl (9 h) was 103.4 meq/L and the DBIL (9 h) was 0.042 mg/dL. It also gave a GLC (9 h) of 199.2 mg/dL, an IP (9 h) of 9.8 mg/dL and a K (9 h) of 4.1 meq/L. It also gave an LDH (9 h) of 64.2 IU/L, a Na (9 h) of 140.6 meq/L and a PL (9 h) of 150.6 mg/dL. For the same molecule, the RALB (9 h) was 2.6 g/dL, the TBIL (9 h) was 0.052 mg/dL and the TC (9 h) was 82.6 mg/dL. It also gave a TG (9 h) of 43.6 mg/dL, a TP (9 h) of 5.5 g/dL and a gamma-GTP (9 h) of 1 IU/L. For the same molecule, the TERMINAL_BW (24 h) was 202.1 g, the APTT (24 h) was 17.9 s and the Bas (24 h) was 0.4%. The Eos (24 h) was 0.8%, the Fbg (24 h) was 294.2 mg/dL and the Hb (24 h) was 14 g/dL. For the same molecule, the Ht (24 h) was 41.4%, the Lym (24 h) was 79.2% and the MCH (24 h) was 20.9 pg. The MCHC (24 h) was 33.8%, the MCV (24 h) was 61.7 fL and the Mono (24 h) was 3%. It also gave a Neu (24 h) of 16%, a PT (24 h) of 14.4 s and a Plat (24 h) of 128.9 x10_4/uL. The RBC (24 h) was 670 x10_4/ul, the Ret (24 h) was 7.1% and the WBC (24 h) was 75.9 x10_2/uL. It also gave a KIDNEY_L (24 h) of 1 g, a KIDNEY_R (24 h) of 0.9 g and a KIDNEY_TOTAL (24 h) of 1.9 g. It also gave an LIVER (24 h) of 8.4 g, an A/G (24 h) of 0.9 and an ALP (24 h) of 1381.2 IU/L. The ALT (24 h) was 46.2 IU/L, the AST (24 h) was 96.4 IU/L and the BUN (24 h) was 11.8 mg/dL. The CRE (24 h) was 0.2 mg/dL, the Ca (24 h) was 10.9 mg/dL and the Cl (24 h) was 104.8 meq/L. The DBIL (24 h) was 0.078 mg/dL, the GLC (24 h) was 175.2 mg/dL and the IP (24 h) was 9.7 mg/dL. For the same molecule, the K (24 h) was 4.1 meq/L, the LDH (24 h) was 102.4 IU/L and the Na (24 h) was 142.4 meq/L. The PL (24 h) was 166.6 mg/dL, the RALB (24 h) was 2.7 g/dL and the TBIL (24 h) was 0.078 mg/dL. For the same molecule, the TC (24 h) was 97.6 mg/dL, the TG (24 h) was 57 mg/dL and the TP (24 h) was 5.8 g/dL. It also gave a gamma-GTP (24 h) of 1 IU/L.
